Experimental data taken from patent publication US7388008B2, “Lysine based compounds” (priority 2004, dated 2008).

Experiment: Bioavailability: plasma concentration after single oral dose in rats
Format: in vivo, male Sprague-Dawley rats
Conditions: for AUC: 50 mg/Kg po, rat plasma; for Delivery of parent drug (PL-100, PL-337) compared to non-aqueous formulations of PL-100 and PL-337: aqueous dosing; for Delivery of parent drug (PL-100, PL-337) compared to non-aqueous formulations of PL-100 and PL-337 / Administered compound detected in the blood samples: 50 mg/kg po, rat; for Administered compound detected in the blood samples: delivered as aqueous solutions
Protocol: To assess the extent of in vivo cleavage of the phosphate group from the putative compounds, PL-100, PL-462 (based on PL-100), PL-337 and PL-515 (based on PL-337) compounds were administered po (50 mg/kg) to male Sprague-Dawley rats and their plasma concentration measured at different time intervals post-administration. All test articles (PL-100, PL-462, PL-337 and PL-515) were prepared in different vehicle at the final concentration of 25 mg/mL. The vehicle composition is as follows: (1) 20% ethanol; 50% propylene glycol; 0.05% w/v Tween 20 and water (Mix); (2) PBS buffer (PBS). Test articles were administered to male Sprague-Dawley rats at a single oral dose of 50 mg/kg. Each article was tested in three rats. Blood samples (0.2–0.3 mL) were collected at the post-dose time of 10, 20, 40, 60, 120, 180 and 360 minutes. The harvested blood was centrifuged to isolate plasma. The resulting plasma was separated and stored at −70° C. Plasma samples together with standards and quality control samples were treated to precipitate proteins, then analyzed by HPLC-MS, for the presence of PL-462, PL-100, PL-515 and PL-337.

[1] = vehicle PBS, parent drug (PL-100 or PL-337) detected
[2] = vehicle Mix (20% ethanol; 50% propylene glycol; 0.05% w/v Tween 20 and water)

SMILES	AUC [1]	Delivery of parent drug (PL-100, PL-337) compared to non-aqueous formulations of PL-100 and PL-337	Administered compound detected in the blood samples	AUC [2]
COC(=O)N[C@H](C(=O)NCCCC[C@@H](COP(=O)(O)O)N(CC(C)C)S(=O)(=O)c1ccc(N)c(F)c1)C(c1ccccc1)c1ccccc1 [PL-515, (1S,5S)-(1-{5-[(4-amino-3-fluoro-benzenesulfonyl)-isobutyl-amino]-6-phosphonooxy-hexylcarbamoyl}-2,2-diphenyl-ethyl)-carbamic acid methyl ester]	1.075 μg/hr * ml	equivalent to slightly superior	None	
COC(=O)N[C@H](C(=O)NCCCC[C@@H](COP(=O)(O)O)N(CC(C)C)S(=O)(=O)c1ccc(N)cc1)C(c1ccccc1)c1ccccc1.[Na] [PL-462, (1S,5S)-(1-{5-[(4-amino-benzenesulfonyl)-isobutyl-amino]-6-phosphonooxy-hexylcarbamoyl}-2,2-diphenyl-ethyl)-carbamic acid methyl ester sodium salt]	0.816 μg/hr * ml	equivalent to slightly superior	None	
COC(=O)N[C@H](C(=O)NCCCC[C@@H](CO)N(CC(C)C)S(=O)(=O)c1ccc(N)cc1)C(c1ccccc1)c1ccccc1 [PL-100, (1S,5S)-(1-{5-[(4-amino-benzenesulfonyl)-isobutyl-amino]-6-hydroxy-hexylcarbamoyl}-2,2-diphenyl-ethyl)-carbamic acid methyl ester]				0.675 μg/hr * ml
COC(=O)N[C@H](C(=O)NCCCC[C@@H](CO)N(CC(C)C)S(=O)(=O)c1ccc(N)c(F)c1)C(c1ccccc1)c1ccccc1 [PL-337, (1-{5-[(4-amino-3-fluoro-benzenesulfonyl)-isobutyl-amino]-6-hydroxy-hexylcarbamoyl}-2,2-diphenyl-ethyl)-carbamic acid methyl ester]				1.180 μg/hr * ml
